Columns and labels:
Format in all cases: ADME
[1] = target: T1, UDP-glucuronosyltransferase 2B17 (Homo sapiens, UniProt O75795); assay: Activity of human recombinant UGT2B17 expressed in insect cells assessed as enzyme mediated glucuronidation at 12.5 uM by LC-MS/MS method
T1 sequence (O75795 whole entry): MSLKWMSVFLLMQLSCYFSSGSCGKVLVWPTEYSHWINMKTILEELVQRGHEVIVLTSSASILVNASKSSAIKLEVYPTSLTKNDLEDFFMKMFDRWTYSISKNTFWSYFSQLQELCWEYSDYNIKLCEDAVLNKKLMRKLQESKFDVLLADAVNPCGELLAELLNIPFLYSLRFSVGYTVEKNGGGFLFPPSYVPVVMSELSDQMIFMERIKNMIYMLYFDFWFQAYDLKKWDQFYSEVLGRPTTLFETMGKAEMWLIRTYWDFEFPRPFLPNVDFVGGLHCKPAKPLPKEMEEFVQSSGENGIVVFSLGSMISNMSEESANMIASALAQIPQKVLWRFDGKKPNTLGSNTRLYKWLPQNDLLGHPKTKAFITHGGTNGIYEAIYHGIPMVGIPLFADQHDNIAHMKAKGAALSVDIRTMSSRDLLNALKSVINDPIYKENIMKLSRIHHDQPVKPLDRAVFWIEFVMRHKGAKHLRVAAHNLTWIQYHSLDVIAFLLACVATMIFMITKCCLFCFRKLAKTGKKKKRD

[2] = target: T2, UDP-glucuronosyltransferase 1A9 (Homo sapiens, UniProt O60656); assay: Activity of human recombinant UGT1A9 expressed in insect cells assessed as enzyme mediated glucuronidation by LC-MS/MS method
T2 sequence (O60656 whole entry): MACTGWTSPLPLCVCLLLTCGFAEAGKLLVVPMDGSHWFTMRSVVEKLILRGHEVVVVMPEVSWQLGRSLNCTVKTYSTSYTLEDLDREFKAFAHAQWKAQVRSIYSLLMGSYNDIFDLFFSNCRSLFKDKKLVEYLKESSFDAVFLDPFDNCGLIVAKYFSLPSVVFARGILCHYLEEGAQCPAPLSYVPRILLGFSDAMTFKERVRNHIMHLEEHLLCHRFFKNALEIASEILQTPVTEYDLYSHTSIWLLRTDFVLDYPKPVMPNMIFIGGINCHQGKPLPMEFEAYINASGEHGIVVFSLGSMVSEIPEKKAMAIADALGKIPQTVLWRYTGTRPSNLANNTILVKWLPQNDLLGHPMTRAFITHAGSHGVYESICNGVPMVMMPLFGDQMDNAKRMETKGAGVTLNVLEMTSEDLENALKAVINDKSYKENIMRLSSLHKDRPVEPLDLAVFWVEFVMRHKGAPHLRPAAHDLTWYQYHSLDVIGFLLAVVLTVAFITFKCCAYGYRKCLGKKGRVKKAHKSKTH

[3] = Drug metabolism in human kidney microsomes assessed as drug glucuronidation in absence of BSA by LC-MS/MS method
[4] = target: T3, UDP-glucuronosyltransferase 1A8 (Homo sapiens, UniProt Q9HAW9); assay: Activity of human recombinant UGT1A8 expressed in insect cells assessed as enzyme mediated glucuronidation at 500 uM by LC-MS/MS method
T3 sequence (Q9HAW9 whole entry): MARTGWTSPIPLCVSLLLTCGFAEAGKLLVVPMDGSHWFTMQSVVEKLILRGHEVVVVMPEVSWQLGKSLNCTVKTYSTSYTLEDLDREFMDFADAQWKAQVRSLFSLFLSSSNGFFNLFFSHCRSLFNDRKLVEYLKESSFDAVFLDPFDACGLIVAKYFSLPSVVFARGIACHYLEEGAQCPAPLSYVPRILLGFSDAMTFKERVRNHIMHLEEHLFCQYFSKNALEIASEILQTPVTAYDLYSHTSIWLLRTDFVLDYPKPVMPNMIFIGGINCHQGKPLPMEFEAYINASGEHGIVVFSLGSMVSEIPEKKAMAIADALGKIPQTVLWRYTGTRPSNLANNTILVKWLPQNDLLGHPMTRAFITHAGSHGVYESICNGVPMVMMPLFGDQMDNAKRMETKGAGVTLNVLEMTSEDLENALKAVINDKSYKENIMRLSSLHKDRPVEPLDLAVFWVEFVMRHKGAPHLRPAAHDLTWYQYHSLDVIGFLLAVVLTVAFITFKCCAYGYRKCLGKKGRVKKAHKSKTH

[5] = Drug metabolism in human liver microsomes assessed as drug glucuronidation in absence of BSA by LC-MS/MS method
Liver microsome [6] = assay: Drug metabolism in human liver microsomes assessed as intrinsic clearance for drug glucuronidation per mg tissue in presence of BSA by LC-MS/MS method
[7] = Drug metabolism in human kidney microsomes assessed as drug glucuronidation in presence of 5 to 35 uM androsterone by LC-MS/MS method
Liver microsome [8] = assay: Drug metabolism in human liver microsomes assessed as drug glucuronidation in presence of […] naloxone by LC-MS/MS method
[9] = target: T4, UDP-glucuronosyltransferase 2B15 (Homo sapiens, UniProt P54855); assay: Activity of human recombinant UGT2B15 expressed in insect cells assessed as enzyme mediated glucuronidation at 500 uM by LC-MS/MS method
T4 sequence (P54855 whole entry): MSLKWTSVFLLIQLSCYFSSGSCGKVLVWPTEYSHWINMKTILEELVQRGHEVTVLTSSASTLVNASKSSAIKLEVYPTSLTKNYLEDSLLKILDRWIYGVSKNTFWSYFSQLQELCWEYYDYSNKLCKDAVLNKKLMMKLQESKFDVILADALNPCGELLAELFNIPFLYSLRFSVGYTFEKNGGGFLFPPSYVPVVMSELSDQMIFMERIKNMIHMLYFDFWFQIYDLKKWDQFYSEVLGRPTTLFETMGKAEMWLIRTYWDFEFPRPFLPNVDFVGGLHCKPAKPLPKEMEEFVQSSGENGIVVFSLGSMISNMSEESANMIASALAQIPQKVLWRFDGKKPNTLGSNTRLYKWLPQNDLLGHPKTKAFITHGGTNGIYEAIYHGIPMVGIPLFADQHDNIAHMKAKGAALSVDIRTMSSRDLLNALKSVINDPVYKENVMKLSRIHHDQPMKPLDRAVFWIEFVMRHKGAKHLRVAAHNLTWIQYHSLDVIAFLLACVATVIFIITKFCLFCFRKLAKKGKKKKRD

Liver microsome [10] = assay: Drug metabolism in human liver microsomes assessed as drug glucuronidation per mg tissue in absence of BSA by LC-MS/MS method
[11] = Drug metabolism in human kidney microsomes assessed as drug glucuronidation in presence of BSA by LC-MS/MS method

Which Drug metabolism [1] does the source give for `CC1=NN(c2ccccc2)C(=O)C1` [EDARAVONE] here?
Its Drug metabolism is “metabolite_detected”.

What about the KmH [2] of the same compound?
Its KmH is 6 µM.

What about the KmL [2] of the same compound?
Its KmL is 419.4 µM.

What about the Km ([3]; read-out: KmH) of the same compound?
The Km was 7.4 µM.

And the Km ([3]; read-out: KmL)?
Its Km is 1360 µM.

And the Drug metabolism [4]?
Its Drug metabolism is “metabolite_detected”.

What about the Km ([5]; read-out: KmH) of the same compound?
Its Km is 36.7 µM.

And the Km ([5]; read-out: KmL)?
Its Km is 5880 µM.

And the CLHH (Liver microsome [6])?
The CLHH was 16.4 µL/min/g.

And the CLHL (Liver microsome [6])?
Its CLHL is 3.7 µL/min/mg.

And the Drug metabolism [7]?
The Drug metabolism was “metabolite_detected”.

And the Drug metabolism (Liver microsome [8])?
The Drug metabolism was “metabolite_detected”.

And the Drug metabolism [9]?
The Drug metabolism was “metabolite_detected”.

And the VmaxH (Liver microsome [10])?
Its VmaxH is 309.4 pmol/min/g.

What about the VmaxL (Liver microsome [10]) of the same compound?
The VmaxL was 7429 pmol/min/g.

What about the Km ([11]; read-out: KmH) of the same compound?
The Km was 8.7 µM.

What about the Km ([11]; read-out: KmL) of the same compound?
The Km was 1470 µM.

Reference: ChEMBL document CHEMBL3526061, “Glucuronidation of edaravone by human liver and kidney microsomes: biphasic kinetics and identification of UGT1A9 as the major UDP-glucuronosyltransferase isoform” (Drug Metab Dispos, 2012)
